Experimental data as given in paper PMC11833279, “Versatile Features of an Antibody Mimetic Peptide and Its Variants” (Journal of Peptide Science, 2025).
Like-named read-outs stand apart in the source and are kept apart here. Non-standard residues stand in square brackets, D forms with d. Residues, ends and D or L forms follow the SMILES beside them. *: point of attachment. Biotin = O=C1N[C@H]2[C@H](CS[C@H]2CCCCC(=O)*)N1; Ahx = NCCCCCC(=O)O; βAla = NCCC(=O)O

Key:
GALV‐RV = format: cell-based; details: read-out: GALV‐RV transduction enhancing effect EC50; Jurkat cells, GFP‐expressing GALV‐RV, peptide‐virus mix incubated 10 min, GFP by flow cytometry 2 days posttransduction; three independent experiments ± SD
Procedure: For the generation of GFP‐expressing γ‐retroviral vector pseudotyped with the glycoprotein of gibbon ape leukemia virus (GALV‐RV), 800,000 HEK293T cells were initially seeded and cotransfected as previously described using following plasmids:GFP‐expressing Murine leukemia virus (MLV) vector E200 pcmE26‐gfp (1.15 μg), E848 pCsGPpA‐ed (0.95 μg), and GALV glycoprotein (0.4 μg).
For the determination of transduction enhancement of GFP‐expressing GALV‐RV, 50,000 Jurkat cells (ATCC, TIB‐152) were seeded in 180 μL RPMI medium (Gibco, 11875093) supplemented with 10% inactivated fetal calf serum (FCS, Gibco, 10437028), 2 mM L‐glutamine (PAN‐Biotech, P04–80050), 100 U/mL penicillin, and 100 μg/mL streptomycin (PAN‐Biotech, P06–07050). Different concentrations of peptides were 1:1 (v/v) mixed with GALV‐RV (1280 dilution on cells) and incubated for 10 min. Subsequently, 20 μL of the virus‐peptide mix was added to cells, and 2 days posttransduction, GFP‐expression was analyzed by flow cytometry using CytoFlex (Beckmann Coulter), and the evaluation was carried out with FlowJo™ (Version 10.8.1).

HIV‐1NL4–3 [1] = format: cell-based; details: CEMx174 SEAP indicator cells, HIV‐1NL4–3, SEAP activity three days after infection; mean and standard error of at least three independent experiments; read-out: HIV‐1 neutralizing activity IC50
Procedure: The plasmid HIV‐1pBRNL4–3, kindly provided by F. Kirchhoff, Ulm, was propagated in XL‐1 Blue competent cells (Stratagene – an Agilent Technologies Division, Waldbronn, Germany) and transfected into 293 T cells using FuGENE HD (Roche, Mannheim, Germany). After 48 h, supernatants were cleared by filtering through 0.22 μm Millex‐GS units (Millipore, Schwalbach, Germany) and stored in aliquots at −80°C.
The indicator cell line CEMx174, which was kindly provided by R. E. Means and R. C. Desrosiers, contained the gene for the secreted alkaline phosphatase (SEAP) under the control of the simian immunodeficiency virus long terminal repeat. Three days after HIV‐1NL4–3 infection, cell culture supernatants were removed and analyzed for SEAP activity using the Phospha‐Light kit (Life Technologies, Darmstadt, Germany) according to the manufacturer's recommendations. Data represent mean and standard error of at least three independently performed experiments.

HIV‐1NL4–3 [2] = details: HIV‐1 neutralization; read-out: HIV‐1 neutralizing activity IC50; cited from earlier work
Source text: Addressing the significance of the disulfide bridge in H1H3, a linear variant (H1H3s) was generated, in which the two cysteine residues were replaced by serine (see Table 1 for peptide sequences).

Molecule	IC50 (HIV‐1NL4–3 [1])	other results
CC[C@H](C)[C@H](NC(=O)[C@@H](NC(=O)[C@H](Cc1ccccc1)NC(=O)[C@H](CC(N)=O)NC(=O)[C@H](CO)NC(=O)[C@H](Cc1ccccc1)NC(=O)[C@H](CCCNC(=N)N)NC(=O)[C@H](Cc1ccc(O)cc1)NC(=O)CNC(C)=O)C(C)C)C(=O)N[C@@H](Cc1c[nH]cn1)C(=O)N[C@@H](Cc1c[nH]c2ccccc12)C(=O)NCC(=O)NCCC(=O)NCC(=O)NCCCCCC(=O)NCC(=O)N[C@@H](CCCCNC(=O)CCCC[C@@H]1SC[C@@H]2NC(=O)N[C@@H]21)C(=O)NCC(=O)NCCCCCC(=O)N[C@@H](CO)C(=O)N[C@H](C(=O)NCC(=O)N1CCC[C@H]1C(=O)N[C@@H](Cc1ccc(O)cc1)C(=O)N[C@@H](CO)C(=O)N[C@@H](Cc1c[nH]c2ccccc12)C(=O)N[C@@H](CC(=O)O)C(=O)N[C@@H](CCCCN)C(=O)N[C@@H](CO)C(=O)N1CCC[C@H]1C(=O)N[C@@H](CCC(N)=O)C(=O)N[C@@H](CC(=O)O)C(=O)N[C@@H](CC(N)=O)C(=O)N[C@@H](Cc1ccc(O)cc1)C(=O)N[C@@H](CCSC)C(=O)N[C@@H](CC(=O)O)C(=O)N[C@@H](CO)C(N)=O)C(C)C [H1H3s‐D100^bK] (Ac-GYRFSNFVIHWG[βAla]G[Ahx]GK(Biotin)G[Ahx]SVGPYSWDKSPQDNYMDS-NH2)		EC50 (GALV‐RV): 630 ± 40 nM
CC[C@H](C)[C@H](NC(=O)[C@H](NC(=O)[C@H](Cc1ccccc1)NC(=O)[C@@H](CC(N)=O)NC(=O)[C@H](CO)NC(=O)[C@@H](Cc1ccccc1)NC(=O)[C@H](CCCNC(=N)N)NC(=O)[C@@H](Cc1ccc(O)cc1)NC(=O)CNC(C)=O)C(C)C)C(=O)N[C@H](Cc1c[nH]cn1)C(=O)N[C@@H](Cc1c[nH]c2ccccc12)C(=O)NCC(=O)NCCC(=O)NCC(=O)NCCCCCC(=O)NCC(=O)N[C@@H](CCCCNC(=O)CCCC[C@@H]1SC[C@@H]2NC(=O)N[C@@H]21)C(=O)NCC(=O)NCCCCCC(=O)N[C@H](CO)C(=O)N[C@@H](C(=O)NCC(=O)N1CCC[C@@H]1C(=O)N[C@@H](Cc1ccc(O)cc1)C(=O)N[C@H](CO)C(=O)N[C@@H](Cc1c[nH]c2ccccc12)C(=O)N[C@H](CC(=O)O)C(=O)N[C@@H](CC(=O)O)C(=O)N[C@H](CO)C(=O)N1CCC[C@H]1C(=O)N[C@H](CCC(N)=O)C(=O)N[C@@H](CC(=O)O)C(=O)N[C@H](CC(N)=O)C(=O)N[C@@H](Cc1ccc(O)cc1)C(=O)N[C@H](CCSC)C(=O)N[C@@H](CC(=O)O)C(=O)N[C@H](CO)C(N)=O)C(C)C [H1H3s‐L/D] (Ac-G[dY]R[dF]S[dN]F[dV]I[dH]WG[βAla]G[Ahx]GK(Biotin)G[Ahx][dS][dV]G[dP]Y[dS]W[dD]D[dS]P[dQ]D[dN]Y[dM]D[dS]-NH2)	> 60000 nM	
CC[C@@H](C)[C@@H](NC(=O)[C@H](NC(=O)[C@@H](Cc1ccccc1)NC(=O)[C@@H](CC(N)=O)NC(=O)[C@@H](CO)NC(=O)[C@@H](Cc1ccccc1)NC(=O)[C@@H](CCCNC(=N)N)NC(=O)[C@@H](Cc1ccc(O)cc1)NC(=O)CNC(C)=O)C(C)C)C(=O)N[C@H](Cc1c[nH]cn1)C(=O)N[C@H](Cc1c[nH]c2ccccc12)C(=O)NCC(=O)NCCC(=O)NCC(=O)NCCCCCC(=O)NCC(=O)N[C@H](CCCCNC(=O)CCCC[C@@H]1SC[C@@H]2NC(=O)N[C@@H]21)C(=O)NCC(=O)NCCCCCC(=O)N[C@H](CO)C(=O)N[C@@H](C(=O)NCC(=O)N1CCC[C@@H]1C(=O)N[C@H](Cc1ccc(O)cc1)C(=O)N[C@H](CO)C(=O)N[C@H](Cc1c[nH]c2ccccc12)C(=O)N[C@H](CC(=O)O)C(=O)N[C@H](CC(=O)O)C(=O)N[C@H](CO)C(=O)N1CCC[C@@H]1C(=O)N[C@H](CCC(N)=O)C(=O)N[C@H](CC(=O)O)C(=O)N[C@H](CC(N)=O)C(=O)N[C@H](Cc1ccc(O)cc1)C(=O)N[C@H](CCSC)C(=O)N[C@H](CC(=O)O)C(=O)N[C@H](CO)C(N)=O)C(C)C [H1H3s‐allD] (Ac-G[dY][dR][dF][dS][dN][dF][dV][dI][dH][dW]G[βAla]G[Ahx]G[dK](Biotin)G[Ahx][dS][dV]G[dP][dY][dS][dW][dD][dD][dS][dP][dQ][dD][dN][dY][dM][dD][dS]-NH2)	1900 ± 400 nM	
CC[C@H](C)[C@H](NC(=O)[C@@H](NC(=O)[C@H](Cc1ccccc1)NC(=O)[C@H](CC(N)=O)NC(=O)[C@H](CO)NC(=O)[C@H](Cc1ccccc1)NC(=O)[C@H](CCCNC(=N)N)NC(=O)[C@H](Cc1ccc(O)cc1)NC(=O)CNC(C)=O)C(C)C)C(=O)N[C@@H](Cc1c[nH]cn1)C(=O)N[C@@H](Cc1c[nH]c2ccccc12)C(=O)NCC(=O)NCCC(=O)NCC(=O)NCCCCCC(=O)NCC(=O)N[C@@H](CCCCNC(=O)CCCC[C@@H]1SC[C@@H]2NC(=O)N[C@@H]21)C(=O)NCC(=O)NCCCCCC(=O)N[C@@H](CO)C(=O)N[C@H](C(=O)NCC(=O)N1CCC[C@H]1C(=O)N[C@@H](Cc1ccc(O)cc1)C(=O)N[C@@H](CO)C(=O)N[C@@H](Cc1c[nH]c2ccccc12)C(=O)N[C@@H](CC(=O)O)C(=O)N[C@@H](CC(=O)O)C(=O)N[C@@H](CO)C(=O)N1CCC[C@H]1C(=O)N[C@@H](CCC(N)=O)C(=O)N[C@@H](CC(=O)O)C(=O)N[C@@H](CC(N)=O)C(=O)N[C@@H](Cc1ccc(O)cc1)C(=O)N[C@@H](CCSC)C(=O)N[C@@H](CC(=O)O)C(=O)N[C@@H](CO)C(N)=O)C(C)C [Peptide H1H3s] (Ac-GYRFSNFVIHWG[βAla]G[Ahx]GK(Biotin)G[Ahx]SVGPYSWDDSPQDNYMDS-NH2)	6300 ± 100 nM	
Ac‐GYRFSNFVIHW‐GB ^b GX ^c G‐K*‐GX‐[CVGPYSWDDSPQDNYMDC]‐NH2 (disulfide) [Peptide H1H3, b12 paratope mimetic peptide presenting heavy chain CDRs H1 and H3, H3 disulfide‐bridged, biotinylated lysine between them]		IC50 (HIV‐1NL4–3 [2]): 1700 nM
